Where only a bound is given, the exact number is not on record here.

In the assay the target is T1, CRF receptor (Rattus norvegicus, UniProt P35353).
T1 construct: The frontal cortex of rats was homogenized in a 50 mM Tris hydrochloric acid buffer; from tissue; host or cells: rat frontal cortex membranes
T1 sequence (P35353 24-415): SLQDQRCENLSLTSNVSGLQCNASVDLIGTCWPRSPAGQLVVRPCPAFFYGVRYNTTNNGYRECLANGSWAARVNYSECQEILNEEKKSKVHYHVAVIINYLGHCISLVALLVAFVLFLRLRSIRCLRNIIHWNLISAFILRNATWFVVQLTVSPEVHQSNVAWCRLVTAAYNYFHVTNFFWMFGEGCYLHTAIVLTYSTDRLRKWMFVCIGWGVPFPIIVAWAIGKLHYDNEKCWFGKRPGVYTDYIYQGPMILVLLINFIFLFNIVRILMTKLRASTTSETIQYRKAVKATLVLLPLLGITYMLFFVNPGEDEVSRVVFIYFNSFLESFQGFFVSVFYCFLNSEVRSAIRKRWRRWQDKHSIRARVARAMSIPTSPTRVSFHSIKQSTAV
The assay can be described thus: CRF receptor binding experiment (125I-CRF, rat frontal cortex membranes). Conditions: frontal cortex membranes of rats 0.3 mg protein/ml; 125I-CRF 0.2 nM; 2 hours at 25° C.; read-out: IC50 (concentration of the test agent for controlling 50% of the binding of 125I-CRF). As to the method: Experimental Example [CRF receptor binding experiment]
As a receptor preparation, the frontal cortex membranes of rats were employed.
As a ^125I labeled ligand, ^125I-CRF was employed.
The binding reaction employing a ^125I labeled ligand was carried out in the following method as described in The Journal of Neuroscience, 7, 88 (1987).
Preparation of the receptor membrane preparations: The frontal cortex of rats was homogenized in a 50 mM Tris hydrochloric acid buffer (pH 7.0) containing 10 mM MgCl2 and 2 mM EDTA, and subsequently, the homogenized mixture was centrifuged at 48,000×g. The precipitate was washed once with the Tris hydrochloric acid buffer. The precipitate was suspended in a 50 mM tris hydrochloric acid buffer (pH 7.0) containing 10 mM MgCl2, 2 mM EDTA, 0.1% bovine serum albumin, and 100 kalliklein unit/ml aprotinin, to produce a membrane preparation.
CRF receptor binding experiment: The membrane preparation (0.3 mg protein/ml), ^125I-CRF (0.2 nM), and a test agent were reacted for 2 hours at 25° C. […] After completion of the washing, the radioactivity of the filter paper was measured by a gamma counter.
The binding quantity obtained when the reaction was carried out in the presence of 1 μM CRF was determined as nonspecific binding of ^125I-CRF, while the difference between the total binding and the nonspecific binding was determined as a specific binding. […]

On to `CSc1cc(C(C)C)ccc1-n1cc(C)c2c(N3CC=C(C(N)=O)CC3)nc(C)nc21` [Com. No. 07, 4-(4-carbamoyl-1,2,3,6-tetrahydropyridin-1-yl)-2,5-dimethyl-7-(4-isopropyl-2-methylthiophenyl)-7H-pyrrolo[2,3-d]pyrimidine], for which the IC50 is no more than 100 nM.

The record behind these values is patent publication US6894168B2, “Carbamoyl tetrahydropyridine derivatives” (Taisho Pharmaceutical Co., Ltd., priority 1999, dated 2005).
